Assay results reported in PMC10895668, “Lead Optimization of the 5-Phenylpyrazolopyrimidinone NPD-2975 toward Compounds with Improved Antitrypanosomal Efficacy” (Journal of Medicinal Chemistry, 2024).
Read-outs that look alike come from different tables or passages of the source.

Experiments:
[1] = system: Leishmania infantum; experiment: Antiparasitic assay, L. infantum; type: cell-based; details: mean ± SD, n ≥ 2, read-out: pIC50 L. infantum (converted)
Protocol: (§1) First, they were tested in vitro against the protozoan species Trypanosoma cruzi and Leishmania infantum and the clinically relevant T. b. rhodesiense.
(§2) The antiparasitic assays were carried out exactly as described in Blaazer et al.([39]) Metabolic stability, pharmacokinetics, acute mouse infection model results were collected as described previously.[21] All animal experiments were conducted in compliance with institutional guidelines and following approval by the Ethical Committee of the University of Antwerp, Belgium [UA-ECD 2014–96]. Female Swiss mice (15–20 g), were purchased from Janvier (Le Genest Saint Isle, France). […] Animals were treated PO b.i.d. for 5 days at 25 and 50 mg/kg 31c. For the SL-RNA qPCR experiments blood was collected sublingually and subjected to erythrocyte lysis before extracting RNA with the QIAamp RNA Blood Mini kit (Qiagen). […] Small pieces of fat, brain, and spleen tissue were excised and immediately transferred to RNA later (Qiagen) and incubated overnight at 4 °C. RNA extraction was performed as instructed in the RNeasy Mini Plus Kit manual (Qiagen). The one-step SensiFAST SYBR Hi-Rox PCR kit (Bioline USA Inc., via Gentaur Belgium BVBA, Kampenhout, Belgium) was used for the PCR with the following forward and reverse primers, respectively 5′-[…]-3′ and 5′-[…]-3′. […]

[2] = human, microsomes, 1 h
[3] = system: T. b. rhodesiense; experiment: Trypanosoma susceptibility assay (resazurin viability); type: cell-based; details: Trypanosoma brucei, mean ± SD, n ≥ 2, read-out: pIC50 T. b. rhodesiense (converted)
Protocol: The antiparasitic assays were carried out exactly as described in Blaazer et al.([39]) Metabolic stability, pharmacokinetics, acute mouse infection model results were collected as described previously.[21] All animal experiments were conducted in compliance with institutional guidelines and following approval by the Ethical Committee of the University of Antwerp, Belgium [UA-ECD 2014–96]. Female Swiss mice (15–20 g), were purchased from Janvier (Le Genest Saint Isle, France). […] Animals were treated PO b.i.d. for 5 days at 25 and 50 mg/kg 31c. For the SL-RNA qPCR experiments blood was collected sublingually and subjected to erythrocyte lysis before extracting RNA with the QIAamp RNA Blood Mini kit (Qiagen). […]
Parasites were counted in a KOVA counting chamber and diluted to 1.5 × 10^4 parasites/well of a 96-well plate (200 μL total volume), upon which the prediluted test compounds were added. […] After 3 days of incubation, parasite growth was assessed fluorimetrically after addition of 50 μL of resazurin per well. After 6 h (T. b. rhodesiense) or 24 h (T. b. brucei) at 37 °C, fluorescence is measured (λex 550 nm, λem 590 nm). Parasite viability was assessed using the resazurin viability assay, and drug activity was calculated as percentage viability reduction compared to nontreated controls.

[4] = system: T. b. brucei; experiment: as above; type: cell-based
Protocol: (§3) The antiparasitic assays were carried out exactly as described in Blaazer et al.([39]) Metabolic stability, pharmacokinetics, acute mouse infection model results were collected as described previously.[21] All animal experiments were conducted in compliance with institutional guidelines and following approval by the Ethical Committee of the University of Antwerp, Belgium [UA-ECD 2014–96]. Female Swiss mice (15–20 g), were purchased from Janvier (Le Genest Saint Isle, France). […] Animals were treated PO b.i.d. for 5 days at 25 and 50 mg/kg 31c. For the SL-RNA qPCR experiments blood was collected sublingually and subjected to erythrocyte lysis before extracting RNA with the QIAamp RNA Blood Mini kit (Qiagen). […] Small pieces of fat, brain, and spleen tissue were excised and immediately transferred to RNA later (Qiagen) and incubated overnight at 4 °C. RNA extraction was performed as instructed in the RNeasy Mini Plus Kit manual (Qiagen). The one-step SensiFAST SYBR Hi-Rox PCR kit (Bioline USA Inc., via Gentaur Belgium BVBA, Kampenhout, Belgium) was used for the PCR with the following forward and reverse primers, respectively 5′-[…]-3′ and 5′-[…]-3′. An initial activation step of 10 min at 45 °C and 10 min at 95 °C was used, followed by the amplification step for 40 cycles (15 s at 95 °C, 15 s 50 °C and 15 s at 60 °C). At last, the melting curves were generated with an increment of 0.3 °C (15 s at 95 °C 1 min at 45 °C and 15 s at 95 °C). The PCR was run on the Step One Plus real-time PCR system (Applied Biosystems, California, USA). An additional qPCR was performed with the mouse housekeeping gene Eef2 to confirm successful RNA extraction.
In vitro experiments were carried out with the bloodstream form of the T. b. brucei Squib strain (suramin-sensitive). Parasites were routinely cultured in T25 culture flasks containing 10 mL of HMI-9 medium (Invitrogen) supplemented with 10% heat-inactivated fetal bovine serum (Life Technologies) and 2.5 μg/mL Geneticin (Life Technologies). MRC-5SV2 cells were cultured in MEM + Earl’s salts-medium, supplemented with 2 mM L-glutamine, 16.5 mM NaHCO3, and 5% inactivated fetal calf serum. All cultures and assays were conducted at 37 °C under an atmosphere of 5% CO2.
Parasites were counted in a KOVA counting chamber and diluted to 1.5 × 10^4 parasites/well of a 96-well plate (200 μL total volume), upon which the prediluted test compounds were added. Drug exposure covered a 72 h period without renewal of the culture medium. After 3 days of incubation, parasite growth was assessed fluorimetrically after addition of 50 μL of resazurin per well. After 6 h (T. b. rhodesiense) or 24 h (T. b. brucei) at 37 °C, fluorescence is measured (λex 550 nm, λem 590 nm). Parasite viability was assessed using the resazurin viability assay, and drug activity was calculated as percentage viability reduction compared to nontreated controls.

[5] = system: Trypanosoma cruzi; experiment: Antiparasitic assay, T. cruzi; type: cell-based; details: mean ± SD, n ≥ 2, read-out: pIC50 T. cruzi (converted)
Protocol: as §1, §2

[6] = system: peritoneal mouse macrophages (PMM); experiment: Cytotoxicity on peritoneal mouse macrophages; type: cell-based; details: Macrophage, n ≥ 2
[7] = system: MRC-5 cells; experiment: MRC-5SV2 cytotoxicity assay; type: cell-based; details: Homo sapiens, MRC5, 72 h; cytotoxicity, 3 days incubation; mean ± SD, n ≥ 2; read-out: pIC50 MRC-5 (converted)
Protocol: The synthesized analogues were tested against T. b. brucei, and inhibition of MRC-5 (human lung fibroblasts MRC-5SV40) cell proliferation was included as cytotoxicity control. […] Analogue 17 with an amino group instead of the carbonyl group was prepared to improve solubility for further modification. […] In vitro experiments were carried out with the bloodstream form of the T. b. brucei Squib strain (suramin-sensitive). […] All cultures and assays were conducted at 37 °C under an atmosphere of 5% CO2. […] Cell growth is compared to untreated-control wells (100% cell growth) and medium-control wells (0% cell growth). […] After 4 h at 37 °C, fluorescence is measured (λex 550 nm, λem 590 nm). The results are expressed as % reduction in cell growth/viability compared to control wells and an IC50 and an IC90 (50 and 90% inhibitory concentrations) are determined.

[8] = mouse, microsomes
[9] = in vivo; details: female, Swiss, mouse, in vivo
Protocol: as §3
Blood drops were sampled before treatment and at 0.5, 1, 2, 4, 6, and 24 h after PO dosage; samples after IP dosage were identical with an additional time point of 0.25 h. The blood drops were analyzed adopting the dry blood spot technique and analysis by LC-MS^2. Briefly, blood was collected from the retro-orbital complex using capillary tubes and dropped (15 μL) on WhatmanFTADMPK cards (B). The spots were left to air-dry at room temperature for at least 2 h. For analysis, a 6 mm disk was punched out and extracted in 75:25 MeCN/water containing the internal standard tolbutamide. The amount of parent compound was determined using liquid chromatography (UPLC) (Waters Aquity) coupled with tandem quadrupole mass spectrometry (MS^2) (Waters Xevo) equipped with an electrospray ionization (ESI) interface and operated in multiple reaction monitoring mode. Standard curves in whole blood were made for calibration and validation. Standard PK parameters were determined using Topfit software.
Brain tissue of the animals was collected on ice at autopsy 24 h post-treatment (50 mg/kg oral dose) after perfusion. […] The tissues were immediately homogenized using a GentleMacs tissue homogenizer. The tissue samples were subjected to protein precipitation by adding MeCN, followed by a centrifugation step at 4 °C for 5 min at 21, 130 g. The supernatant was further diluted in 75:25 MeCN/water for LC-MS^2 analysis as described above.

[10] = system: T. b. brucei; set-up: method as in PMID 37471520; details: previous in vivo results ref 21, cited from earlier work
[11] = system: MRC-5 cells; details: Figure 1; previously reported series ref 21; cited from earlier work

Compound | IC50 [1] [µM] | parent compound remaining [2] | IC50 [3] [µM] | improved potency compared to 2 ([4]; T. brucei, versus compound 2) [fold] | IC50 ([4]; Trypanosoma brucei, 72 h, T. b. brucei Squib bloodstream form, 72 h exposure, mean ± SD, n ≥ 2, read-out: pIC50 T. brucei (converted)) [µM] | IC50 [5] [µM] | IC50 [6] [µM] | IC50 [7] [µM] | time within which compound was metabolized [8] [min] | parent compound remaining ([8]; 1 h) | Tmax at 24 h ([9]; ip, 10 mg/kg) [h] | Tmax at 24 h ([9]; po, 50 mg/kg) [h] | survival ([10]; 25 mg/kg group) | survival ([10]; 50 mg/kg dose) | MRC-5 pIC50 [11]
O=c1[nH]c(-c2ccc(F)cc2)nc2c(C3CCCC3)n[nH]c12 [31a, 3-Cyclopentyl-5-(4-fluorophenyl)-1,6-dihydro-7H-pyrazolo[4,3-d]pyrimidin-7-one] | > 63.1 | at least 69% | 0.01 | 6 | 0.01 | > 63.1 | > 63.1 | > 63.1 | ≤ 15 | at least 69% | – | – | – | – | –
CC(C)c1n[nH]c2c(=O)[nH]c(-c3ccc(F)cc3)nc12 [compound 2] | – | – | – | – | – | – | > 63.1 | > 63.1 | – | – | 0.25 | 3 ± 1.5 | all animals died at 11 days postinfection | all animals survived until the end of the experiment | < 4.2
